Assay results: patent publication US20250041307A1, “Uses of Bicyclic Compounds for the Treatment of Diseases” (Athira Pharma, Inc., priority 2021, published 2025)

System: Rat primary cortical neuron cultures
Experiment: Protection from neurotoxicity in vitro (Cell Titer-Glo viability)
Format: cell-based
Parameters: key to Protection of cell viability, statistical significance vs. insult control: NS=not significant; +=p<0.05; ++=p<0.01; +++=p<0.001
Method: HGF/MET signaling activation is expected to protect cells, including neurons, from cell death. […] Hydrogen peroxide (H2O2) treatment produces toxic oxidative stress. Bacteria-derived lipopolysaccharide (LPS) treatment induces inflammatory cell death. Treatment with excess glutamate (Glut) produces excitotoxicity in neuron cultures. Treatment with 1-methyl-4-phenylpyridinium (MPP^+) causes cell death by inhibition of mitochondrial function.
Rat primary cortical neuron cultures were grown at 37° C., 5% CO2 in Complete Neurobasal Medium supplemented with B27/GDNF/BDNF containing 10% FBS until maturity and were then seeded in 384-well plate at 5,000 cells/well. Cultures were then treated for 15 minutes with 1 uM, 100 nM, 10 nM, 1 nM, or 0.1 nM of compound 1a. Cells were then subjected to individual conditional insults for 24 hours at the following concentrations: H2O2 at 1 uM, LPS at 1 uM, glutamate at 25 uM, MPP+ at 500 uM. All treatments contained recombinant human HGF (R&D Systems) at a concentration of 5 ng/ml.
To quantify neuroprotection, cell viability was measured with the Cell Titer-Glo Luminescent Cell Viability Assay (Promega, Cat #G7571). Data was normalized to DMSO+HGF control set at 100% cell viability. Statistical analyses for each group (n=4) were performed using one-way ANOVA with Tukey's Multiple comparison test.
Data is reported as statistical significance vs. insult control, with NS=not significant, +=p<0.05, ++=p<0.01, and +++=p<0.001.

In the case of `CCC(C)CN1CC2N(C(=O)c3ccc(C(F)(F)F)cc3)CCC(=O)N2[C@@H](C)C1=O` (stereo partly drawn) [Compound 1a], the “Neuroprotective effect on rat neurons in culture” value (broad range of concentrations, entire cohort of insults tested) is reported as “effective neuroprotective treatment”, the “Protection of cell viability, statistical significance vs. insult control” value (insult Glutamate (25 uM) 24 hours, 0.1 nM + HGF (5 ng/ml)) is reported as “+++ (+++=p<0.001)” and the “Protection of cell viability, statistical significance vs. insult control” value (insult Glutamate (25 uM) 24 hours, 1 nM + HGF (5 ng/ml)) is reported as “+++ (+++=p<0.001)”. The “Protection of cell viability, statistical significance vs. insult control” value (insult Glutamate (25 uM) 24 hours, 100 nM (first column so headed) + HGF (5 ng/ml)) was “+++ (+++=p<0.001)”, the “Protection of cell viability, statistical significance vs. insult control” value (insult Glutamate (25 uM) 24 hours, 100 nM (second column so headed) + HGF (5 ng/ml)) was “+++ (+++=p<0.001)” and the “Protection of cell viability, statistical significance vs. insult control” value (insult Glutamate (25 uM) 24 hours, 1 uM + HGF (5 ng/ml)) was “+++ (+++=p<0.001)”. The “Protection of cell viability, statistical significance vs. insult control” value (insult H2O2 (1 uM) 24 hours, 0.1 nM + HGF (5 ng/ml)) was “+++ (+++=p<0.001)”, the “Protection of cell viability, statistical significance vs. insult control” value (insult H2O2 (1 uM) 24 hours, 1 nM + HGF (5 ng/ml)) was “+++ (+++=p<0.001)” and the “Protection of cell viability, statistical significance vs. insult control” value (insult H2O2 (1 uM) 24 hours, 100 nM (first column so headed) + HGF (5 ng/ml)) was “+++ (+++=p<0.001)”. For the same compound, the “Protection of cell viability, statistical significance vs. insult control” value (insult H2O2 (1 uM) 24 hours, 100 nM (second column so headed) + HGF (5 ng/ml)) was “+++ (+++=p<0.001)”, the “Protection of cell viability, statistical significance vs. insult control” value (insult H2O2 (1 uM) 24 hours, 1 uM + HGF (5 ng/ml)) was “+++ (+++=p<0.001)” and the “Protection of cell viability, statistical significance vs. insult control” value (insult LPS (1 uM) 24 hours, 0.1 nM + HGF (5 ng/ml)) was “+++ (+++=p<0.001)”. The “Protection of cell viability, statistical significance vs. insult control” value (insult LPS (1 uM) 24 hours, 1 nM + HGF (5 ng/ml)) was “NS”, the “Protection of cell viability, statistical significance vs. insult control” value (insult LPS (1 uM) 24 hours, 100 nM (first column so headed) + HGF (5 ng/ml)) was “+++ (+++=p<0.001)” and the “Protection of cell viability, statistical significance vs. insult control” value (insult LPS (1 uM) 24 hours, 100 nM (second column so headed) + HGF (5 ng/ml)) was “+++ (+++=p<0.001)”. For the same compound, the “Protection of cell viability, statistical significance vs. insult control” value (insult LPS (1 uM) 24 hours, 1 uM + HGF (5 ng/ml)) was “+++ (+++=p<0.001)”, the “Protection of cell viability, statistical significance vs. insult control” value (insult MPP+ (500 uM) 24 hours, 0.1 nM + HGF (5 ng/ml)) was “+++ (+++=p<0.001)” and the “Protection of cell viability, statistical significance vs. insult control” value (insult MPP+ (500 uM) 24 hours, 1 nM + HGF (5 ng/ml)) was “+++ (+++=p<0.001)”. For the same compound, the “Protection of cell viability, statistical significance vs. insult control” value (insult MPP+ (500 uM) 24 hours, 100 nM (first column so headed) + HGF (5 ng/ml)) was “+++ (+++=p<0.001)”, the “Protection of cell viability, statistical significance vs. insult control” value (insult MPP+ (500 uM) 24 hours, 100 nM (second column so headed) + HGF (5 ng/ml)) was “+++ (+++=p<0.001)” and the “Protection of cell viability, statistical significance vs. insult control” value (insult MPP+ (500 uM) 24 hours, 1 uM + HGF (5 ng/ml)) was “+++ (+++=p<0.001)”.
